Data reported in article PMC11129975, “A first-in-human phase I study of TAS-117, an allosteric AKT inhibitor, in patients with advanced solid tumors” (Cancer Chemotherapy and Pharmacology, 2024).

Columns and labels:
[1] = test system: multiple tumor cell lines derived from human cancers; set-up: method as in data on file, Taiho Pharmaceutical Co., Ltd.; settings: breast, ovarian, gastric, endometrial and myeloma lines; ref data on file, Taiho Pharmaceutical Co., Ltd.; cited from earlier work
AKT = assay: Ratio of pPRAS40/total PRAS40 in platelet-rich plasma (electrochemiluminescence); format: in vivo, human; settings: at any time point; DEP, RMP and SAP; dose levels 2 to 5 (8 to 32 mg/body/day)
Description: Blood samples for pharmacokinetic analysis were collected immediately prior to dosing (0 h) and at 0.5, 1, 2, 3, 4, 6, 8, 12, and 24 h post-dose on Day 1 and Day 21 of Cycle 1 for patients in the DEP (QD dosing). For patients who received intermittent dosing regimens, blood was collected immediately prior to dosing (0 h) and at 1, 2, 3, 4, 6, 8, 10, and 24 h post-dose on Cycle 1 Day 1; immediately prior to dosing (0 h) on Cycle 1 Days 3, 4, and 8; and immediately prior to dosing (0 h) and at 1, 2, 3, 4, 6, 8, 10, 24, 48, and 96 h post-dose on Cycle 1 Day 18. […]
The pharmacodynamic activity of TAS-117 for AKT inhibition was evaluated by the change in the ratio of pPRAS40 (threonine 246) to total PRAS40 in platelet-rich plasma samples before and after TAS-117 administration. The phosphorylation status of PRAS40 in the blood was measured with an electrochemiluminescence detection assay using a Meso Scale Discovery instrument (Meso Scale Diagnostics, Rockville, MD, US). For efficacy, solid tumors were assessed using Response Evaluation Criteria in Solid Tumors (RECIST; version 1.1). Computed tomography scans were evaluated at baseline, every 6 weeks after initiating TAS-117 administration, and at the time of study discontinuation.

[2] = test system: advanced or metastatic solid tumors; assay: Antitumor activity, best overall response by RECIST version 1.1; format: in vivo, human
Description: The phosphorylation status of PRAS40 in the blood was measured with an electrochemiluminescence detection assay using a Meso Scale Discovery instrument (Meso Scale Diagnostics, Rockville, MD, US). For efficacy, solid tumors were assessed using Response Evaluation Criteria in Solid Tumors (RECIST; version 1.1).

[3] = RMP (intermittent dosing) Level 4 (24 mg) n = 6
[4] = RMP (intermittent dosing) Level 5 (32 mg) n = 4
[5] = SAP (intermittent dosing) Cohort 1 Level 4 n = 16
[6] = SAP (intermittent dosing) Cohort 2 Level 4 n = 7
[7] = SAP (intermittent dosing) Cohort 3 Level 4 n = 20

## C[C@]1(O)C[C@@](N)(c2ccc(-c3nc4n(c3-c3ccccc3)COc3ccncc3-4)cc2)C1 [TAS-117]
[1]
  Anti-proliferative activity: strong anti-proliferative activity
AKT
  Reduction in the level of pPRAS40: > 50%
[2]; DEP (QD) Level 1 (4 mg) n = 2
  Best overall response: CR: 0 n (%)
  Best overall response: NE: 0 n (%)
  Best overall response: Non-CR/non-PD: 0 n (%)
  Best overall response: PD: 2 (100.0) n (%)
  Best overall response: PR: 0 n (%)
  Best overall response: SD: 0 n (%)
  DCR (CR + PR + SD + non-CR/non-PD): 0 n (%)
  RR (CR + PR): 0 n (%)
[2]; DEP (QD) Level 2 (8 mg) n = 1
  Best overall response: CR: 0 n (%)
  Best overall response: NE: 0 n (%)
  Best overall response: Non-CR/non-PD: 0 n (%)
  Best overall response: PD: 0 n (%)
  Best overall response: PR: 0 n (%)
  Best overall response: SD: 1 (100.0) n (%)
  DCR (CR + PR + SD + non-CR/non-PD): 1 (100.0) n (%)
  RR (CR + PR): 0 n (%)
[2]; DEP (QD) Level 3 (16 mg) n = 6
  Best overall response: CR: 0 n (%)
  Best overall response: NE: 0 n (%)
  Best overall response: Non-CR/non-PD: 0 n (%)
  Best overall response: PD: 6 (100.0) n (%)
  Best overall response: PR: 0 n (%)
  Best overall response: SD: 0 n (%)
  DCR (CR + PR + SD + non-CR/non-PD): 0 n (%)
  RR (CR + PR): 0 n (%)
[2]; DEP (QD) Level 4 (24 mg) n = 3
  Best overall response: CR: 0 n (%)
  Best overall response: NE: 0 n (%)
  Best overall response: Non-CR/non-PD: 0 n (%)
  Best overall response: PD: 2 (66.7) n (%)
  Best overall response: PR: 0 n (%)
  Best overall response: SD: 1 (33.3) n (%)
  DCR (CR + PR + SD + non-CR/non-PD): 1 (33.3) n (%)
  RR (CR + PR): 0 n (%)
[2]; [3]
  Best overall response: CR: 0 n (%)
  Best overall response: NE: 0 n (%)
  Best overall response: Non-CR/non-PD: 0 n (%)
  Best overall response: PD: 4 (66.7) n (%)
  Best overall response: PR: 0 n (%)
  Best overall response: SD: 2 (33.3) n (%)
  DCR (CR + PR + SD + non-CR/non-PD): 2 (33.3) n (%)
  RR (CR + PR): 0 n (%)
[2]; [4]
  Best overall response: CR: 0 n (%)
  Best overall response: NE: 0 n (%)
  Best overall response: Non-CR/non-PD: 0 n (%)
  Best overall response: PD: 4 (100.0) n (%)
  Best overall response: PR: 0 n (%)
  Best overall response: SD: 0 n (%)
  DCR (CR + PR + SD + non-CR/non-PD): 0 n (%)
  RR (CR + PR): 0 n (%)
[2]; SAP
  Patients with confirmed partial response: Four patients
[2]; [5]
  Best overall response: CR: 0 n (%)
  Best overall response: NE: 0 n (%)
  Best overall response: Non-CR/non-PD: 0 n (%)
  Best overall response: PD: 5 (31.3) n (%)
  Best overall response: PR: 1 (6.3) n (%)
  Best overall response: SD: 10 (62.5) n (%)
  DCR (CR + PR + SD + non-CR/non-PD): 11 (68.8) n (%)
  RR (CR + PR): 1 (6.3) n (%)
[2]; [6]
  Best overall response: CR: 0 n (%)
  Best overall response: NE: 0 n (%)
  Best overall response: Non-CR/non-PD: 0 n (%)
  Best overall response: PD: 1 (14.3) n (%)
  Best overall response: PR: 0 n (%)
  Best overall response: SD: 6 (85.7) n (%)
  DCR (CR + PR + SD + non-CR/non-PD): 6 (85.7) n (%)
  RR (CR + PR): 0 n (%)
[2]; [7]
  Best overall response: CR: 0 n (%)
  Best overall response: NE: 0 n (%)
  Best overall response: Non-CR/non-PD: 0 n (%)
  Best overall response: PD: 12 (60.0) n (%)
  Best overall response: PR: 3 (15.0) n (%)
  Best overall response: SD: 5 (25.0) n (%)
  DCR (CR + PR + SD + non-CR/non-PD): 8 (40.0) n (%)
  RR (CR + PR): 3 (15.0) n (%)
[2]; SAP cohort 1 (endometrial cancer with PIK3CA mutation), 1 of 16 patients
  Confirmed PR: 6.3%
[2]; SAP cohort 2
  DCR: 85.7%
[2]; SAP cohort 3
  DCR: 40.0%
[2]; SAP cohort 3 (ovarian clear cell carcinoma), 3 of 20 patients
  Confirmed PR: 15.0%
[2]; SAP, cohort 1
  DCR: 68.8%
[2]; Total N = 65
  Best overall response: CR: 0 n (%)
  Best overall response: NE: 0 n (%)
  Best overall response: Non-CR/non-PD: 0 n (%)
  Best overall response: PD: 36 (55.4) n (%)
  Best overall response: PR: 4 (6.2) n (%)
  Best overall response: SD: 25 (38.5) n (%)
  DCR (CR + PR + SD + non-CR/non-PD): 29 (44.6) n (%)
  RR (CR + PR): 4 (6.2) n (%)
[2]; dose level 2 in the DEP
  DCR: 100%
